# Measured values: the Kinase Knowledgebase extract (Sharma et al. 2016)
# Assays:
# [1] = target: EGFR (human), P00533 [WT]; conditions: hl-7702
# [2] = target: EGFR (Human), P00533 [T790M/L858R]; conditions: h1975
# EGFR (human) = EGFR (human) (UniProt P00533); conditions: a431
# [3] = target: EGFR (human), P00533 [Inhibition of Proliferation of EGFR(WT, k-Ras mutation) in A549 Cells]
# Sequence of EGFR (human), P00533 [Inhibition of Proliferation of EGFR(WT, k-Ras mutation) in A549 Cells] (P00533 whole entry, looked up, change not shown): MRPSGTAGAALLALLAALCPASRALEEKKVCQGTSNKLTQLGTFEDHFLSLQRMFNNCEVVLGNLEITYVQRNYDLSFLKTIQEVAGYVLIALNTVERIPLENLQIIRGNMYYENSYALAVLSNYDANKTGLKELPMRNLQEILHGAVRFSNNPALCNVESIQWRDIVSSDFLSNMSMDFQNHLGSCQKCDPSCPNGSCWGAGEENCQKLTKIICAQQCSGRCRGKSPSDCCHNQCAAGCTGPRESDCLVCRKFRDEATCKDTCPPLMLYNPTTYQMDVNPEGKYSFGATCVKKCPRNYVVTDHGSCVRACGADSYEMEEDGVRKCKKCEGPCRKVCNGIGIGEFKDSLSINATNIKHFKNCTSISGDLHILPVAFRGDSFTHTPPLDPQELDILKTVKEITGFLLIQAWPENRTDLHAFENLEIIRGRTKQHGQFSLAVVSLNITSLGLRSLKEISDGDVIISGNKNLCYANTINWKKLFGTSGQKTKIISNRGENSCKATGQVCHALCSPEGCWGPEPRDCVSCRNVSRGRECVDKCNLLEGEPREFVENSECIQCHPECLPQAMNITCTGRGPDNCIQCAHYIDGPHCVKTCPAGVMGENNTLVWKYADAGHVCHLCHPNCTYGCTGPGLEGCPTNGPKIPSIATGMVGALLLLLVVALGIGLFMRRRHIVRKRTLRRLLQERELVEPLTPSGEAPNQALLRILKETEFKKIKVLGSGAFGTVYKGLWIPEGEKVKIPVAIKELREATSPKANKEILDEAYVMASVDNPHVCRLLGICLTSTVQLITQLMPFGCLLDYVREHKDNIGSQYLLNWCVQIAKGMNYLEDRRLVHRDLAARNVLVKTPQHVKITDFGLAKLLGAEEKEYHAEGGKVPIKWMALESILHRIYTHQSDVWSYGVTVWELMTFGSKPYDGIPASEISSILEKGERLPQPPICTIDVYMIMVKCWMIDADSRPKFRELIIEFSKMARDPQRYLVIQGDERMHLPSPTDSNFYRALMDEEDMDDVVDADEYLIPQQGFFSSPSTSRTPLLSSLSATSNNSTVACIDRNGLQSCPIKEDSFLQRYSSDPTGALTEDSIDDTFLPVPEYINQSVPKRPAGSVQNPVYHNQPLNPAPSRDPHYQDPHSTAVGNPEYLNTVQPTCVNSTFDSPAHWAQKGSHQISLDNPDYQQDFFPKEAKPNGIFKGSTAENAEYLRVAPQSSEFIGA
# Sequence of EGFR (human), P00533 [WT] (P00533 whole entry, looked up): as the sequence (P00533 whole entry, looked up, change not shown) above
# Sequence of EGFR (human) (P00533 whole entry, looked up): as the sequence (P00533 whole entry, looked up, change not shown) above
# Sequence of EGFR (Human), P00533 [T790M/L858R] (P00533 whole entry T790M/L858R, looked up): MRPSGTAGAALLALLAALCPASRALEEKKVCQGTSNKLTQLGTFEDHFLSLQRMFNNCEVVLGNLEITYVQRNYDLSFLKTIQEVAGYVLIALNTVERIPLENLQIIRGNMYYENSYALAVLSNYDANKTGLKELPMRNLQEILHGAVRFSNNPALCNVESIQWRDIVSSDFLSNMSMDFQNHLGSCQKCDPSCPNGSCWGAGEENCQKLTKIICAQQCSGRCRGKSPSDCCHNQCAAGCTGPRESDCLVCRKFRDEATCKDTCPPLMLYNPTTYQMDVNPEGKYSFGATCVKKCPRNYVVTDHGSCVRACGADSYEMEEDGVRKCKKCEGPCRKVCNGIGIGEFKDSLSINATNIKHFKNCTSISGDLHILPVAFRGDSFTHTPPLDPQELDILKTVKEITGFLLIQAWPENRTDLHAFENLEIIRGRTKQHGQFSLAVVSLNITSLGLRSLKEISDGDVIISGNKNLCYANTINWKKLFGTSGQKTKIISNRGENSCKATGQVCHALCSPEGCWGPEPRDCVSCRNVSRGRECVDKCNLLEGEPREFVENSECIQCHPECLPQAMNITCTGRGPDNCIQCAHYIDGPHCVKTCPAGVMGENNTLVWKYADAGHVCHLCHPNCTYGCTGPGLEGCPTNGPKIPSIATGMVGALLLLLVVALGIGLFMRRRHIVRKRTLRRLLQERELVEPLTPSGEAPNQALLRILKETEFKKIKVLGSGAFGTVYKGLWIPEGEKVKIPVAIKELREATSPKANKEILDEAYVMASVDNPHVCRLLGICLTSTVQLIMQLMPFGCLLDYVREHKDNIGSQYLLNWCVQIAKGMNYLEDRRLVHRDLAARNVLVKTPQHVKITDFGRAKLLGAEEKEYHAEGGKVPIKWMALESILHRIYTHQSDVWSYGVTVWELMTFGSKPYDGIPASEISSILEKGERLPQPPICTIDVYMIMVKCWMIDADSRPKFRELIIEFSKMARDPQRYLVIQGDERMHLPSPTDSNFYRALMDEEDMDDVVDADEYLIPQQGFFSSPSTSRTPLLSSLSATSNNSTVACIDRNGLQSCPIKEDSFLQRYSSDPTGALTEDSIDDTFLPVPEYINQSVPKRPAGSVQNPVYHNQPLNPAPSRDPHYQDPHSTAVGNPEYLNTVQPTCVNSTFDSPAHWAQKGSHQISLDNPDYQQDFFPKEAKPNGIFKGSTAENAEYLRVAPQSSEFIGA
Structure (SMILES),IC50 [1] [µM],IC50 [2] [µM],IC50 (EGFR (human)) [µM],IC50 [3] [µM]
COc1cc(N2CCN(C)CC2)ccc1Nc1ncc2c(n1)N(c1cccc(N)c1)C(=O)N(C)C2,> 10,> 20,> 10,–
C=CC(=O)Nc1cccc(N2C(=O)N(c3ccc(Oc4ccccc4)cc3)Cc3cnc(Nc4ccc(N5CCN(C)CC5)cc4OC)nc32)c1,> 10,–,–,–
CCC(=O)Nc1cccc(N2C(=O)N(C)Cc3cnc(Nc4ccc(N5CCN(C)CC5)cc4OC)nc32)c1,> 10,> 20,> 10,> 30
C=CC(=O)Nc1cccc(N2C(=O)N(C)Cc3cnc(Nc4ccc(N5CCOCC5)cc4OC)nc32)c1,> 10,–,> 10,–
C=CC(=O)Nc1cccc(N2C(=O)N(C)Cc3cnc(Nc4ccc(N5CCC(N(C)C)CC5)cc4OC)nc32)c1,> 10,–,–,–
C=CC(=O)Nc1cccc(N2C(=O)N(C)Cc3cnc(Nc4ccc(N5CCN(C)CC5)cc4F)nc32)c1,–,–,> 10,–
C=CC(=O)Nc1cccc(N2C(=O)N(C)Cc3cnc(Nc4ccc(N5CCN(C)CC5)cc4C)nc32)c1,> 10,–,–,–
C=CC(=O)Nc1cccc(N2C(=O)N(C(C)C)Cc3cnc(Nc4ccc(N5CCN(C)CC5)cc4OC)nc32)c1,> 10,–,–,–
C=CC(=O)Nc1cccc(N2C(=O)N(C)Cc3cnc(NC)nc32)c1,> 10,–,> 10,> 20
C=CC(=O)Nc1cccc(N2C(=O)N(C)Cc3cnc(Nc4ccccc4)nc32)c1,> 10,–,–,–
C=CC(=O)Nc1cccc(N2C(=O)N(C)Cc3cnc(Nc4ccc(N(C)C)cc4OC)nc32)c1,> 10,–,–,> 20

# Continued, values first:
IC50 [1] [µM],IC50 [2] [µM],IC50 (EGFR (human)) [µM],IC50 [3] [µM],Structure (SMILES)
> 10,–,–,–,C=CC(=O)Nc1cccc(N2C(=O)N(C)Cc3cnc(Nc4ccc(N5CCN(C)CC5)cc4OC(C)C)nc32)c1
> 10,–,–,> 20,C=CC(=O)Nc1cccc(N2C(=O)N(C)Cc3cnc(Nc4ccc(N5CCCN(C)CC5)cc4OC)nc32)c1
> 10,–,–,–,C=CC(=O)Nc1cccc(N2C(=O)N(C)Cc3cnc(Nc4ccc(N5CCN(C)CC5)cc4OC)nc32)c1
> 10,–,–,–,C=CC(=O)Nc1cccc(N2C(=O)N(C)Cc3cnc(Nc4ccc(N5CCN(C)CC5)cc4OCC)nc32)c1
> 10,–,–,–,C=CC(=O)Nc1cccc(N2C(=O)N(C)Cc3cnc(Nc4ccc(N5CCCCC5)cc4OC)nc32)c1
